Paper PMC8713287, “Synthesis and Cytotoxic Activity of Lepidilines A–D: Comparison with Some 4,5-Diphenyl Analogues and Related Imidazole-2-thiones” (Journal of Natural Products, 2021)
Structures can show the parent of a compound that is named as a salt. Blank lines part the entries; values can stand above or below the compound they belong to.

What was measured:
[1] = test system: human umbilical vein endothelial cells (HUVECs); assay: MTT cytotoxicity assay, HUVEC; type: cell-based; settings: 48 h incubation, normal cells, mean ± SEM
Description: (§1) Potential biological activity of all four lepidilines A–D (1a–1d), as well as their 4,5-diphenyl analogues 6a[PF6], 6c[PF6], and 6d[PF6] (as hexafluorophosphate salts) and a series of imidazole-2-thiones 7 and 8 obtained therefrom, was evaluated in vitro against two human cancer cell lines: promyelocytic leukemia HL-60 and breast cancer adenocarcinoma MCF-7. Selected analogues were also tested against human umbilical vein endothelial cells (HUVECs) using the MTT cytotoxicity assay. Concentration–response analysis was performed to determine drug concentrations required to inhibit the growth of cells by 50% (IC50) after 48 h of incubation.
(§2) Human promyelocytic leukemia (HL-60) and human breast cancer adenocarcinoma (MCF-7) cell lines were obtained from the European Collection of Cell Cultures, while HUVECs were purchased from the American Type Culture Collection. HL-60 cells were cultured in RPMI 1640 plus GlutaMax I medium (Gibco/Life Technologies, Carlsbad, CA, USA). MCF-7 cells were maintained in minimum essential medium Eagle (Sigma-Aldrich, St. Louis, MO, USA) supplemented with 2 mM glutamine and Men nonessential amino acid solution (Sigma-Aldrich). Both media were supplemented with 10% heat-inactivated fetal bovine serum (Biological Industries, Beit-Haemek, Israel) and antibiotics (100 U/mL penicillin and 100 μg/mL streptomycin) (Sigma-Aldrich). HUVEC cells were grown in EGM-2 endothelial medium BulletKit (Lonza, Basel, Switzerland). Cells were maintained at 37 °C in a 5% CO2 atmosphere and were grown until 80% confluent.
(§3) The tested compounds were dissolved in sterile dimethyl sulfoxide (DMSO) and further diluted with culture medium. The final concentration of DMSO in cell cultures was less than 0.1% v/v. Controls without and with 0.1% DMSO were performed in each experiment.
(§4) The MTT assay was performed according to the known procedure.[30] The cells were incubated with the analogues for 48 h. The absorbance of the blue formazan product was measured at 560 nm using a FlexStation 3 multi-mode microplate reader (Molecular Devices, LLC, CA, USA) and compared with control (untreated cells). All experiments were performed in triplicate.

[2] = test system: breast cancer adenocarcinoma MCF-7; assay: MTT cytotoxicity assay, MCF-7; type: cell-based, human; settings: mean ± SEM
Description: as §1, §2, §3, §4

[3] = test system: eight human cancer cell lines; design: method as in PMID 12932133; settings: inactive against all those cell lines; cited from earlier work
[4] = test system: promyelocytic leukemia HL-60; assay: MTT cytotoxicity assay, HL-60; type: cell-based, human; settings: for IC50: MTT, 48 h incubation, mean ± SEM; for HUVEC/HL-60 IC50 ratio: normal HUVEC vs HL-60
Description: as §1, §2, §3, §4

[5] = test system: breast carcinoma MDA-231; design: method as in PMID 12932133; settings: cited from earlier work
[6] = test system: pancreatic adenocarcinoma PACA2; design: method as in PMID 12932133; settings: cited from earlier work
[7] = Homo sapiens, MCF7, 48 h incubation

melting point: 102 to 104 °C
Compound: COc1cccc(C[n+]2cn(Cc3ccccc3)c(C)c2C)c1 (as salt: phosphate) [1c[PF6], 1-Benzyl-3-(3-methoxybenzyl)-4,5-dimethylimidazolium hexafluorophosphate]

melting point: 129 to 131 °C
Compound: c1ccc(Cn2c[n+](Cc3ccccc3)c(-c3ccccc3)c2-c2ccccc2)cc1 (as salt: phosphate) [6a[PF6], 1,3-Dibenzyl-4,5-diphenylimidazolium hexafluorophosphate]

melting point: 78 to 81 °C
Compound: COc1cccc(C[n+]2cn(Cc3ccccc3)c(-c3ccccc3)c2-c2ccccc2)c1 (as salt: phosphate) [6c[PF6], 1-Benzyl-3-(3-methoxybenzyl)-4,5-diphenylimidazolium hexafluorophosphate]

Compound: COc1cccc(C[n+]2c(-c3ccccc3)c(-c3ccccc3)n(Cc3ccccc3)c2C)c1 (as salt: phosphate) [6d[PF6], 1-Benzyl-3-(3-methoxybenzyl)-2-methyl-4,5-diphenylimidazolium hexafluorophosphate]
melting point: 175 to 177 °C

Compound: Cc1c(C)[n+](Cc2ccccc2)cn1Cc1ccccc1 [1a, 1,3-Dibenzyl-4,5-dimethylimidazolium chloride]
IC50 [1]: > 100 µM
IC50 [2, 7]: > 100 µM
IC50 [3]: > 10 µM
IC50 ([4]; Homo sapiens, HL-60, 48 h): 32.3 ± 3.5 µM

Compound: Cc1c(C)[n+](Cc2ccccc2)cn1Cc1ccccc1 [1a[PF6]] [1,3-Dibenzyl-4,5-dimethylimidazolium hexafluorophosphate]
IC50 ([2]; 48 h incubation): > 100 µM
IC50 [4]: 32 ± 2 µM

melting point: 228 to 229 °C
Compound: Cc1c(C)[n+](Cc2ccccc2)c(C)n1Cc1ccccc1.[Cl-] [1b, 1,3-Dibenzyl-2,4,5-trimethylimidazolium chloride]
IC50 [1]: > 100 µM
IC50 MDA-231 [5]: 1.66 µg/mL
IC50 ([5]; converted from μg/mL): 5.1 µM
IC50 [2, 7]: > 100 µM
IC50 PACA2 [6]: 1.38 µg/mL
IC50 ([6]; converted from μg/mL): 4.2 µM
IC50 ([4]; Homo sapiens, HL-60, 48 h): 3.8 ± 0.2 µM

melting point: 94 to 96 °C
Compound: COc1cccc(Cn2c[n+](Cc3ccccc3)c(C)c2C)c1.[Cl-] [1c, 1-Benzyl-3-(3-methoxybenzyl)-4,5-dimethylimidazolium chloride]
IC50 [1]: > 100 µM
IC50 [2, 7]: 75 ± 5 µM
IC50 ([4]; Homo sapiens, HL-60, 48 h): 27.7 ± 2.5 µM

Compound: COc1cccc(C[n+]2cn(Cc3ccccc3)c(C)c2C)c1 [1c[PF6], 1-Benzyl-3-(3-methoxybenzyl)-4,5-dimethylimidazolium hexafluorophosphate]
IC50 [2, 7]: 69.9 ± 0.2 µM
IC50 ([4]; Homo sapiens, HL-60, 48 h): 19.9 ± 0.2 µM

melting point: 214 to 216 °C
Compound: COc1cccc(Cn2c(C)c(C)[n+](Cc3ccccc3)c2C)c1.[Cl-] [1d, 1-Benzyl-3-(3-methoxybenzyl)-2,4,5-trimethylimidazolium chloride]
IC50 [1]: > 100 µM
IC50 [2, 7]: > 100 µM
IC50 ([4]; Homo sapiens, HL-60, 48 h): 1.1 ± 0.1 µM
fold more cytotoxic for leukemia (HL-60) than for breast cancer (MCF-7) cells ([4]; MCF-7 vs HL-60): over 100 fold
HUVEC/HL-60 IC50 ratio [4]: over 100

Compound: c1ccc(Cn2c[n+](Cc3ccccc3)c(-c3ccccc3)c2-c2ccccc2)cc1 [6a[PF6], 1,3-Dibenzyl-4,5-diphenylimidazolium hexafluorophosphate]
IC50 [2, 7]: 8.2 ± 0.2 µM
IC50 ([4]; Homo sapiens, HL-60, 48 h): 1.2 ± 0.1 µM

melting point: 149 to 151 °C
Compound: COc1cccc(C[n+]2cn(Cc3ccccc3)c(-c3ccccc3)c2-c2ccccc2)c1.[Br-] [6c[Br], 1-Benzyl-3-(3-methoxybenzyl)-4,5-diphenylimidazolium bromide]

Compound: COc1cccc(C[n+]2cn(Cc3ccccc3)c(-c3ccccc3)c2-c2ccccc2)c1 [6c[PF6], 1-Benzyl-3-(3-methoxybenzyl)-4,5-diphenylimidazolium hexafluorophosphate]
IC50 [1]: 8.8 ± 0.1 µM
IC50 [2, 7]: 7.9 ± 0.3 µM
IC50 ([4]; Homo sapiens, HL-60, 48 h): 1.2 ± 0.2 µM

Compound: COc1cccc(C[n+]2c(-c3ccccc3)c(-c3ccccc3)n(Cc3ccccc3)c2C)c1 [6d[PF6], 1-Benzyl-3-(3-methoxybenzyl)-2-methyl-4,5-diphenylimidazolium hexafluorophosphate]
IC50 [2, 7]: 6.5 ± 0.2 µM
IC50 ([4]; Homo sapiens, HL-60, 48 h): 1.2 ± 0.1 µM

melting point: 183 to 185 °C
Compound: Cc1c(C)n(Cc2ccccc2)c(=S)n1Cc1ccccc1 [7a, 1,3-Dibenzyl-4,5-dimethylimidazole-2-thione]
IC50 [2, 7]: > 100 µM
IC50 ([4]; Homo sapiens, HL-60, 48 h): > 100 µM

Compound: COc1cccc(Cn2c(C)c(C)n(Cc3ccccc3)c2=S)c1 [7c, 1-(3′-Methoxybenzyl)-3-benzyl-4,5-dimethylimidazole-2-thione]
IC50 [2, 7]: > 100 µM
IC50 ([4]; Homo sapiens, HL-60, 48 h): 20.2 ± 1.9 µM

melting point: 180 to 182 °C
Compound: S=c1n(Cc2ccccc2)c(-c2ccccc2)c(-c2ccccc2)n1Cc1ccccc1 [8a, 1,3-Dibenzyl-4,5-diphenylimidazole-2-thione]
IC50 [2, 7]: > 100 µM
IC50 ([4]; Homo sapiens, HL-60, 48 h): 8.1 ± 0.3 µM

melting point: 52 to 55 °C
Compound: COc1cccc(Cn2c(-c3ccccc3)c(-c3ccccc3)n(Cc3ccccc3)c2=S)c1 [8c, 1-(3′-Methoxybenzyl)-3-benzyl-4,5-diphenylimidazole-2-thione]
IC50 [2, 7]: > 100 µM
IC50 ([4]; Homo sapiens, HL-60, 48 h): 55 ± 5 µM

Compound: COc1cccc2c1C(=O)c1c(O)c3c(c(O)c1C2=O)C[C@@](O)(C(=O)CO)C[C@@H]3O[C@H]1C[C@H](N)[C@H](O)[C@H](C)O1 [DXR, doxorubicin, reference compound]
IC50 [1]: 1.4 ± 0.1 µM
IC50 [2, 7]: 0.9 ± 0.1 µM
fold more cytotoxic than lepidiline D ([4]; DXR vs lepidiline D, HL-60): 10 fold
IC50 ([4]; Homo sapiens, HL-60, 48 h): 0.12 ± 0.01 µM
HUVEC/HL-60 IC50 ratio [4]: about 10

Compound: c1c[n+](C23CC4CC(CC(C4)C2)C3)cn1C12CC3CC(CC(C3)C1)C2 [compound 9, 1,3-diadamantylimidazolium bromide]
IC50 [2, 7]: 51.5 ± 1.5 µM
IC50 ([4]; Homo sapiens, HL-60, 48 h): 1.8 ± 0.1 µM

Compound: c1c[n+](OC23CC4CC(CC(C4)C2)C3)cn1OC12CC3CC(CC(C3)C1)C2 [compound 10]
IC50 [1]: 9.1 ± 0.3 µM
IC50 [2, 7]: 4.5 ± 0.1 µM
IC50 ([4]; Homo sapiens, HL-60, 48 h): 0.3 ± 0.1 µM
